The source of these data is patent US10509041B2, “Glucose derivative, and cell imaging method and imaging agent using said derivative” (HIROSAKI UNIVERSITY, priority 2014, dated 2019).

“And” between values parts separate entries of the source, which are not always exact repeats. Equal values may be shown once.

For data set [1], the system named is mouse insulinoma cells (MIN6). The data set can be described thus: Influence of excessive D-glucose or L-glucose on increase in fluorescence intensity caused by CDG or CLG in MIN6 cells. The format is cell-based. As to conditions: 100 μM, 37° C. 5 min, MIN6 culture day 13, versus non-excessive glucose control. As to the method: Whether or not increase in fluorescence intensity caused by the administration of the blue fluorescent D-glucose derivative CDG (100 μM) to the mouse insulinoma cells MIN6 at culture day 13 was inhibited by a large excess of D-glucose or L-glucose was examined. The blue fluorescent L-glucose derivative CLG was similarly analyzed as a control. However, the following conditions were changed.
Although the usual KRB solution contains 129 mM NaCl and 5.6 mM D-glucose, the osmotic pressure of a control solution (non-excessive glucose administration group solution) for this experiment was adjusted to 270 mOsm by substituting a portion of NaCl with choline-Cl, in order to equalize charge and osmotic pressure between the control solution and a KRB solution for excessive glucose administration. Also, the KRB solution for excessive glucose administration was allowed to contain NaCl and glucose according to the composition given below. In this respect, choline-Cl was added thereto in order to equalize osmotic pressure between this solution and the control solution (non-excessive glucose administration group solution).
100 mM NaCl and 5.6 mM D-glucose (non-excessive glucose administration group solution)
100 mM NaCl and 50 mM D-glucose (50 mM excessive D-glucose administration group solution)
100 mM NaCl, 50 mM L-glucose, and 5.6 mM D-glucose (50 mM excessive L-glucose administration group solution)
These dedicated KRB solutions were also used as a solution for preparing CDG and CLG solutions in this Example.
CDG and CLG were placed on different plates for the experiment. A CDG solution (or a CLG solution) prepared using each dedicated KRB solution was administered thereto using an 8-channel pipette (37° C., 5 min). Before the administration, replacement with each dedicated KRB solution was carried out in advance, and the autofluorescence of each well was measured with a fluorescence microplate reader. The time from the start of the replacement to immediately before the administration was approximately 28 minutes.
After the completion of the administration, first, the fluorescent solution in each well was temporarily diluted using 200 μL of the dedicated KRB solution and then diluted using 300 μL of the usual KRB solution.
The influence of the presence of 50 mM L-glucose was also studied as a control in evaluating the influence of the presence of a large excess (50 mM) of D-glucose on increase in fluorescence intensity.

Data set [2] concerns mouse insulinoma cells (MIN6). The experiment in a line: Increase in fluorescence intensity (uptake) after administration of fluorescent glucose derivative to MIN6 cells, influence of cytochalasin B (CB) or phloretin (PHT), fluorescence microplate reader. Type of data set: cell-based. As to conditions: for effect of PHT on increase in fluorescence intensity (uptake) caused by administration: CDG and CLG on the same dish.

The nature of data set [3]: Fluorescence spectrum (excitation and fluorescence maxima). The format is physicochemical. The text has this:
The fluorescence spectra of CDG synthesized in (1) and QDG synthesized in (2) were compared with the fluorescence spectrum of 2-NBDLG (manufactured by Peptide Institute, Inc.).
The numeric values described above the graph denote the fluorescence maximum of CDG and QDG, respectively. It is evident that the fluorescence maximum was largely shifted to shorter wavelength as compared with the fluorescence maximum of 2-NBDLG present around 550 nm.

Data set [4] concerns neuronal cells of the substantia nigra pars reticulate of the midbrain. The data set can be described thus: Fluorescent imaging of acutely isolated normal neuronal cells. As to conditions: 3 minutes, 8 minutes after start of washout. The format is cell-based, mouse. As to the method: The whole amount of the 0.5 mg CLG vial was recovered using 0.73 mL in total of 10% DMSO and dissolved (100 μM) by addition to 14.79 ml of a HEPES solution for image acquisition according to the method described in Non Patent Literature 2. […]
150 mM NaCl, 5 mM KCl, 1 mM MgCl2, 2 mM CaCl2, and 10 mM HEPES (the pH of the solution was adjusted to 7.4 with a 1 M tris(2-amino-2-hydroxymethyl-1,3-propanediol) solution). The concentration of glucose was set to 10 mM. 0.1 mM carbenoxolone (Sigma-Aldrich, #C4790) was added thereto for the purpose of inhibiting the entrance and exit of fluorescently labeled glucose by way of gap junction/hemichannel. This HEPES solution for image acquisition was used for preparing the CLG solution and the mixed solution with the additional fluorescent sugar derivative.
Neuronal cells […] to the method described in the previous reports of the inventors (WO2010/16587 (Patent Literature 2)) and (WO2012/133688 (Patent Literature 4)) and attached to each glass cover slip coated with poly-L-lysine. Then, the glass cover slip was transferred into the HEPES solution for image acquisition in a perfusion chamber loaded on a stage of a fluorescence microscope, followed by observation.
A silicon plate of 1 mm thickness bored to have a streamline-shaped hole (10 mm wide x 35 mm long) was placed via cover glass onto an aluminum heating control platform (Warner Instruments) having a round hole (diameter: 18 mm) for an objective lens at the bottom, and allowed to be in close contact with the cover glass.
The HEPES solution for image acquisition was warmed in advance in an aluminum syringe heater and supplied to the perfusion chamber through hydrostatic pressure. The perfusion rate was adjusted to 1.3±0.2 mL/min using a flow rate adjuster. Immediately before being introduced to the perfusion chamber, the solution was rewarmed via an inline heater so that the actually measured temperature of the perfusate in an observation region in the chamber was adjusted to 32.5±1° C. The CLG/2-TRLG mixed solution was able to be supplied in the same way as above and was switched with the HEPES solution for image acquisition using an electromagnetic valve capable of controlling the opening and closing of the channel. The solution was removed using a vacuum pump capable of controlling suction pressure.
The fluorescence microscope used was NIKON ECLIPS-Ti, and images were acquired with a CCD camera Retiga 2000R.
CLG and 2-TRLG were each detected using the following filter cassette.
Excitation 360/40 nm, Dichroic mirror 400 nm, Emission 460/50 nm.
Excitation 567/15 nm, Dichroic mirror 593 nm, Emission 593 nm Long pass.
The objective lens used in this method was ×20 dry lens (Nikon Plan S Fluor). The images were acquired at 1600×1200 pixels. […]

`O=c1ccc2ccc(NC3C(O)OC(CO)[C@@H](O)[C@@H]3O)cc2o1` (stereo partly drawn) [CDG, 2-deoxy-2-(2-oxo-2H-chromen-7-yl)amino-D-glucose]: in data set [1], the “effect of 50 mM D-glucose on increase in fluorescence intensity caused by administration” value was “significantly suppressed” and the “effect of 50 mM L-glucose on increase in fluorescence intensity caused by administration” value is on record as “not suppressed”. In addition, the “fluorescence intensity in the presence of PHT relative to the absence of PHT” value in data set [2] (CDG 100 μM, 37° C. 5 minutes, PHT 150 μM, MIN6 culture day 13, average, two independent experiments) was 28.5% and 28.8%. The “effect of PHT on increase in fluorescence intensity (uptake) caused by administration” value in data set [2] (MIN6 culture day 15, 5 minutes) is on record as “significantly inhibited”. Moreover, in data set [3], the “maximum excitation wavelength (Ex max)” value is reported as 366.5 nm and the “maximum fluorescence wavelength (Em max)” value worked out at 454.5 nm. Also, the “uptake into normal neuronal cells” value in data set [4] (100 μM CDG+20 μM 2-TRLG mixed solution, 14-day-old mouse) is recorded as “taken into the normal neuronal cells”.

Turning to `O=c1ccc2ccc(NC3C(O)OC(CO)[C@H](O)[C@H]3O)cc2o1` (stereo partly drawn) [CLG, 2-deoxy-2-(2-oxo-2H-chromen-7-yl)amino-L-glucose], in data set [1], the “effect of 50 mM D-glucose on increase in fluorescence intensity caused by administration” value is recorded as “slightly inhibited” and the “effect of 50 mM L-glucose on increase in fluorescence intensity caused by administration” value was “not inhibited”. The “effect of PHT on increase in fluorescence intensity (uptake) caused by administration” value in data set [2] (MIN6 culture day 15, 5 minutes) is “significantly inhibited”. Moreover, the “increase in fluorescence intensity caused by administration, compared with CDG (D/L stereoselectivity)” value in data set [2] (same dish, MIN6 culture day 15, 5 minutes) is listed as “significantly smaller”. In addition, in data set [3], the “maximum excitation wavelength (Ex max)” value came to 366.5 nm and the “maximum fluorescence wavelength (Em max)” value is recorded as 454.5 nm. In data set [4] (100 μM CLG+20 μM 2-TRLG mixed solution, 21-day-old mouse), the “uptake into normal neuronal cells” value is reported as “not observed”.
